Tests used:
P. falciparum FTase = P. falciparum FTase (Plasmodium falciparum, UniProt Q5EI73+Q5EI74); experiment: P. falciparum FTase activity assay as described in Glenn et al., 2006; format: biochemical; conditions: for Selectivity: IC50 for hFTase divided by IC50 for PfFTase
Human FTase = Human FTase (Homo sapiens, UniProt P49354+P49356); conditions: legend of Figure 4C; mammalian enzyme
[1] = read-out: inhibition of P. falciparum FTase activity

Structure (SMILES) | inhibition at 0.0005 µM (P. falciparum FTase; [1]) | inhibition at 0.005 µM (P. falciparum FTase; [1]) | Selectivity (P. falciparum FTase) | IC50 (in words) (Human FTase)
Cc1ccccc1S(=O)(=O)N(CCN(Cc1cncn1C)c1ccc(C#N)cc1)CC1CCN(C(=O)OC(C)(C)C)CC1 [Compound 5, N-(N-tert-Butoxycarbonylpiperidin-4-ylmethyl), N-({2-[(4-cyanophenyl)-(3-methyl-3H-imidazol-4-ylmethyl)-amino]-ethyl}) 2-methylbenzenesulfonamide] | 20% | 76% | – | –
Cc1ccccc1S(=O)(=O)N(CCN(Cc1cncn1C)c1ccc(C#N)cc1)Cc1ccccc1 [Compound 7, N-Benzyl, N-{2-[(4-cyanophenyl)-(3-methyl-3H-imidazol-4-ylmethyl)-amino]-ethyl} 2-methyl-benzenesulfonamide] | – | – | 32 | –
Cn1cncc1CN(CCN(CC1CCN(C(=O)OC(C)(C)C)CC1)S(=O)(=O)c1ccccc1-c1cccc(CCC(=O)O)c1)c1ccc(C#N)cc1 [Compound 10, N-(N-tert-Butoxycarbonylpiperidin-4-ylmethyl), N-({2-[(4-cyanophenyl)-(3-methyl-3H-imidazol-4-ylmethyl)-amino]-ethyl}) (3′-(2-carboxyethyl)-biphenyl)-2-sulfonamide] | – | – | 11 | sub-micromolar

Source: publication PMC2671474 (Chemistry & biology, 2009)
